Experimental data as given in patent US20240139125A1 (INDUSTRIAL COOPERATION FOUNDATION JEONBUK NATIONAL …, priority 2020, published 2024).
Structures can show the parent of a compound that is named as a salt.

What was measured:
[1] = Cell viability for BIA and analogues, DU145 cell line; type: cell-based; details: human; for viability at 10 µM: DU145, 10 uM; for viability at 20 µM: DU145, 20 uM; for viability: DU145, 50 rpm
Protocol: (§1) The compound prepared in Example 15 was treated with HT1080 fibrosarcoma cell line at 5 μM and 10 μM and cell viability was measured. In addition, the compound prepared in Example 15 on the DU145 prostate cancer cell line was treated with 10 μM, 20 μM, and 30 μM and cell viability was measured (see Table 2, Table 3).

[2] = Cell viability for BIA and analogues, HT1080 cell line; type: cell-based; details: human, HT1080 fibrosarcoma cells; for viability at 5 µM: HT1080, 5 uM; for viability at 10 µM: HT1080, 10 uM
Protocol: HT1080 MDA-MB-231, SKBR3 and MCF7 cell lines were cultured in a 37° C., 5% CO2 incubator in a medium with 10% Fetal Bovine Serum, 1% penicillin and streptomycin (100 U) added to DMEM.
as §1

| SMILES | viability at 10 µM [1] [%] | viability at 20 µM [1] [%] | viability [1] [%] | viability at 5 µM [2] [%] | viability at 10 µM [2] [%] |
| --- | --- | --- | --- | --- | --- |
| Nc1ccccc1-c1cc(-c2cccc(C(F)(F)F)c2)ncn1 | 95.3 | 87.8 | 74.8 | 99.6 | 97.3 |
| Nc1ccccc1C(=O)/C=C/c1ccccc1 [GM-90130, (E)-1-(2-aminophenyl)-3-phenylprop-2-en-1-one] | 78.7 | 79.4 | 48.3 | 99.5 | 31.7 |
| COc1cccc(/C=C/C(=O)c2ccccc2N)c1 [GM-90131, (E)-1-(2-aminophenyl)-3-(3-methoxyphenyl)prop-2-en-1-one] | 81.5 | 74 | 33.2 | 101 | 37.4 |
| Nc1ccccc1C(=O)/C=C/c1cccc(Br)c1 [GM-90132, (E)-1-(2-aminophenyl)-3-(3-bromophenyl)prop-2-en-1-one] | 81.5 | 71.2 | 19.9 | 100 | 30.9 |
| Nc1ccccc1C(=O)/C=C/c1ccc([N+](=O)[O-])cc1 [GM-90133, (E)-1-(2-aminophenyl)-3-(4-nitrophenyl)prop-2-en-1-one] | 50.5 | 35.2 | 26.8 | 101 | 54.9 |
| COc1ccccc1C(=O)/C=C/c1cccc([N+](=O)[O-])c1 [GM-90134, (E)-1-(2-methoxyphenyl)-3-(3-nitrophenyl)prop-2-en-1-one] | 31.5 | 25.4 | 22.8 | 99.1 | 96.6 |
| O=C(/C=C/c1cccc([N+](=O)[O-])c1)c1ccccc1O [GM-90135, (E)-1-(2-hydroxyphenyl)-3-(3-nitrophenyl)prop-2-en-1-one] | 88.5 | 87.3 | 64.5 | 99.9 | 96.8 |
| Nc1ccccc1C(=O)/C=C/c1ccc(OC(F)(F)F)cc1 [GM-90222, (E)-1-(2-aminophenyl)-3-(4-(trifluoromethoxy)phenyl)prop-2-en-1-one] | 40.7 | 31.3 | 28.9 | 109 | 92 |
| Nc1ccccc1C(=O)/C=C/c1ccc(F)cc1F [GM-90223, (E)-1-(2-aminophenyl)-3-(2,4-difluorophenyl)prop-2-en-1-one] | 26.5 | 26.3 | 21.1 | 93.8 | 86 |
| CCOc1cc(F)ccc1/C=C/C(=O)c1ccccc1N [GM-90224, (E)-1-(2-aminophenyl)-3-(2-ethoxy-4-fluorophenyl)prop-2-en-1-one] | 90.5 | 90 | 75.8 | 108 | 99.7 |
| Nc1ccccc1C(=O)/C=C/c1ccc2ccccc2c1 [GM-90225, (E)-1-(2-aminophenyl)-3-(naphthalen-2-yl)prop-2-en-1-one] | 87.4 | 79.4 | 71.2 | 70.5 | 43.5 |
| Nc1ccccc1C(=O)/C=C/c1ccc(C(F)(F)F)cc1 [GM-90226, (E)-1-(2-aminophenyl)-3-(4-(trifluoromethyl)phenyl)prop-2-en-1-one] | 68.1 | 46.8 | 11.8 | 83.9 | 15.4 |
| Cc1ccc(/C=C/C(=O)c2ccccc2N)cc1 [GM-90227, (E)-1-(2-aminophenyl)-3-(p-tolyl)prop-2-en-1-one] | 43.3 | 36.1 | 28.2 | 108 | 96.3 |
| CCOc1ccc([N+](=O)[O-])cc1/C=C/C(=O)c1ccccc1N [GM-90229, (E)-1-(2-aminophenyl)-3-(2-ethoxy-5-nitrophenyl)prop-2-en-1-one] | 53.1 | 40.5 | 21.1 | 64.4 | 15.7 |
| CCOc1ccc([N+](=O)[O-])cc1C(O)CC(=O)c1ccccc1N (centres unmarked) [GM-90230, 1-(2-aminophenyl)-3-(2-ethoxy-5-nitrophenyl)-3-hydroxypropan-1-one] | 66.3 | 29.1 | 29.3 | 108 | 98.8 |
| CC(C)(C)c1ccc(/C=C/C(=O)c2ccccc2N)cc1 [GM-90243, (E)-1-(2-aminophenyl)-3-(4-(tert-butyl)phenyl)prop-2-en-1-one] | 31.8 | 28.2 | 14.3 | 66.8 | 39.2 |

| SMILES | viability at 10 µM [1] [%] | viability at 20 µM [1] [%] | viability [1] [%] | viability at 5 µM [2] [%] | viability at 10 µM [2] [%] |
| --- | --- | --- | --- | --- | --- |
| COc1cc(N)c(C(=O)/C=C/c2cccc(Br)c2)cc1OC [GM-90255, (E)-1-(2-amino-4,5-dimethoxyphenyl)-3-(3-bromophenyl)prop-2-en-1-one] | 88.7 | 70.2 | 66.4 | 88.1 | 33.4 |
| COc1cccc(/C=C/C(=O)c2cc(OC)c(OC)cc2N)c1 [GM-90256, (E)-1-(2-amino-4,5-dimethoxyphenyl)-3-(3-methoxyphenyl)prop-2-en-1-one] | 76.3 | 60.2 | 54.9 | 82.4 | 46.3 |
| Nc1ccccc1C(=O)/C=C/c1cc(O)cc(Br)c1 [GM-90281, (E)-1-(2-aminophenyl)-3-(3-bromo-5-hydroxyphenyl)prop-2-en-1-one] | 77.4 | 76.4 | 67 | 11.4 | 11.1 |
| N#Cc1cccc(/C=C/C(=O)c2ccccc2N)c1 [GM-90282, (E)-3-(3-(2-aminophenyl)-3-oxoprop-1-en-1-yl)benzonitrile] | 72.9 | 53.4 | 9.57 | 12.2 | 7.14 |
| Nc1ccccc1C(=O)/C=C/c1cccc(C(F)(F)F)c1 [GM-90283, (E)-1-(2-aminophenyl)-3-(3-(trifluoromethyl)phenyl)prop-2-en-1-one] | 59.9 | 33.1 | 22.9 | 18.1 | 11.9 |
| Cc1cccc(/C=C/C(=O)c2ccccc2N)c1 [GM-90284, (E)-1-(2-aminophenyl)-3-(m-tolyl)prop-2-en-1-one] | 88.4 | 81 | 79 | 86.4 | 18.8 |
| Nc1ccccc1C(=O)/C=C/c1cccnc1 [GM-90285, (E)-1-(2-aminophenyl)-3-(pyridin-3-yl)prop-2-en-1-one] | 83.5 | 82.8 | 78.8 | 71.5 | 8.35 |
| COc1ccc(C(=O)/C=C/c2cccc([N+](=O)[O-])c2)c(N)c1 [GM-90297, (E)-1-(2-amino-4-methoxyphenyl)-3-(3-nitrophenyl)prop-2-en-1-one] | 85.7 | 87.2 | 83 | 93.3 | 18.2 |
| CNC(=O)c1cccc(/C=C/C(=O)c2ccccc2N)c1 [GM-90300, (E)-3-(3-(2-aminophenyl)-3-oxoprop-1-en-1-yl)-N-methyl benzamide] | 62.6 | 58.5 | 54.5 | 99.5 | 23.4 |
| Nc1cccc(/C=C/C(=O)c2ccccc2N)c1 [GM-90315, (E)-1-(2-aminophenyl)-3-(3-aminophenyl)prop-2-en-1-one Hydrochloride] | 98 | 97.9 | 88.9 | 41.1 | 11.2 |
| Nc1ccccc1C(=O)/C=C/c1cc(F)c(O)c(F)c1 [GM-90316, (E)-1-(2-aminophenyl)-3-(3,5-difluoro-4-hydroxyphenyl)prop-2-en-1-one] | 87.4 | 60 | 38.4 | 101 | 67.8 |
| Nc1ccccc1C(=O)/C=C/c1cccc(Cl)c1 [GM-90317, (E)-1-(2-aminophenyl)-3-(3-chlorophenyl)prop-2-en-1-one] | 32.4 | 28.1 | 11.9 | 46.8 | 14.4 |
| COc1cc(N)c(C(=O)/C=C/c2cccc(C#N)c2)cc1OC [GM-90319, (E)-3-(3-(2-amino-4,5-dimethoxyphenyl)-3-oxoprop-1-en-1-yl)benzonitrile] | 110 | 88.1 | 85.8 | 46.6 | 9.94 |
| COc1cc(N)c(C(=O)/C=C/c2cccc(C(F)(F)F)c2)cc1OC [GM-90320, (E)-1-(2-amino-4,5-dimethoxyphenyl)-3-(3-(trifluoromethyl)phenyl)prop-2-en-1-one] | 89.1 | 89.1 | 82.4 | 94.5 | 62.7 |
| COc1cc(N)c(C(=O)/C=C/c2cc(O)cc(Br)c2)cc1OC [GM-90321, (E)-1-(2-amino-4,5-dimethoxyphenyl)-3-(3-bromo-5-hydroxyphenyl)prop-2-en-1-one] | 83.6 | 81.8 | 84.8 | 61.2 | 21.2 |
